Measured values reported in patent US9833497B2, “Human originated EGF domain proteins and use of the same” (CHENGDU SOURCEBIO LIMITED-LIABILITY COMPANY, priority 2013, dated 2017).

Columns and labels:
Assay type in all cases: cell-based
[1] = test system: Proteus mirabilis; assay: MIC against Gram-negative bacteria: Proteus mirabilis
Summary of the method: (§1)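 Broth microdilution, LB medium, final inoculum 5×10^5 CFU/mL from McFarland 0.5 cultures. Recombinant human EGF domain proteins tested in two-fold steps, n=3. MIC: lowest concentration, no growth.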

[2] = test system: Citrobacter diversus; assay: MIC against Gram-negative bacteria: Citrobacter diversus
Summary of the method: as §1

[3] = test system: Pseudomonas aeruginosa; assay: MIC against Gram-negative bacteria: Pseudomonas aeruginosa
Summary of the method: as §1

[4] = test system: Proteus vulgaris; assay: MIC against Gram-negative bacteria: Proteus vulgaris
Summary of the method: as §1

[5] = test system: E. coli DH5α; assay: Antibacterial activity: MIC and growth curve against E. coli DH5α in 96-well plate; conditions: minimal inhibitory concentration against E. coli DH5α; 96-well plate, 5×10^5 CFU/mL, 37° C., judged after 8 h
Summary of the method: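 MIC taken as lowest protein level with no bacterial growth, tracked by A600 every 30 min during 37 °C, 175 rpm culture. Two-fold protein series 50-12.5 μg/mL final, triplicate wells, against 5×10^5 CFU/mL of LB-washed mid-log cells.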

[6] = test system: Aeromonas hydrophila; assay: MIC against Gram-negative bacteria: Aeromonas hydrophila
Summary of the method: as §1

[7] = test system: Serratia marcescens; assay: MIC against Gram-negative bacteria: Serratia marcescens
Summary of the method: as §1

[8] = test system: Klebsiella pneumonia; assay: MIC against Gram-negative bacteria: Klebsiella pneumonia
Summary of the method: as §1

[9] = test system: E. coli BL21; assay: MIC against Gram-negative bacteria: E. coli BL21
Summary of the method: as §1

[10] = test system: Moraxella catarrhalis; assay: MIC against Gram-negative bacteria: Moraxella catarrhalis
Summary of the method: as §1

[11] = test system: Enterobacter cloacae; assay: MIC against Gram-negative bacteria: Enterobacter cloacae
Summary of the method: as §1

[12] = Proteus mirabilis, 96-well plate, 5×10^5 CFU/mL, 37° C., 10 h
[13] = Citrobacter diversus, 96-well plate, 5×10^5 CFU/mL, 37° C., 10 h
[14] = Pseudomonas aeruginosa, 96-well plate, 5×10^5 CFU/mL, 37° C., 10 h
[15] = Proteus vulgaris, 96-well plate, 5×10^5 CFU/mL, 37° C., 10 h
[16] = Aeromonas hydrophila, 96-well plate, 5×10^5 CFU/mL, 37° C., 10 h
[17] = Serratia marcescens, 96-well plate, 5×10^5 CFU/mL, 37° C., 10 h
[18] = Klebsiella pneumonia, 96-well plate, 5×10^5 CFU/mL, 37° C., 10 h
[19] = E. coli BL21, 96-well plate, 5×10^5 CFU/mL, 37° C., 10 h
[20] = Moraxella catarrhalis, 96-well plate, 5×10^5 CFU/mL, 37° C., 10 h
[21] = Enterobacter cloacae, 96-well plate, 5×10^5 CFU/mL, 37° C., 10 h
[22] = 10 h cultivation at 37° C., 5×10^5 CFU/mL, two-fold serial dilution

Substance: PRT1437 (DVNECADGAHPPCHASARCRNTKGGFQCLCADPYELGDDGRTCV; listed as Homo sapiens)
- MIC against P. mirabilis ([1]; Proteus mirabilis, 5×10^5 CFU/mL, 10 h cultivation at 37° C.): 25 µg/mL
- MIC against C. diversus ([2]; Citrobacter diversus, 5×10^5 CFU/mL, 10 h cultivation at 37° C.): 12.5 µg/mL
- MIC against P. aeruginosa ([3]; Pseudomonas aeruginosa, 5×10^5 CFU/mL, 10 h cultivation at 37° C.): 12.5 µg/mL
- MIC against P. vulgaris ([4]; Proteus vulgaris, 5×10^5 CFU/mL, 10 h cultivation at 37° C.): 12.5 µg/mL
- MIC [5]: 12.5 µg/mL
- MIC against A. hydrophila ([6]; Aeromonas hydrophila, 5×10^5 CFU/mL, 10 h cultivation at 37° C.): 12.5 µg/mL
- MIC against S. marcescens ([7]; Serratia marcescens, 5×10^5 CFU/mL, 10 h cultivation at 37° C.): 50 µg/mL
- MIC against K. pneumonia ([8]; Klebsiella pneumonia, 5×10^5 CFU/mL, 10 h cultivation at 37° C.): 12.5 µg/mL
- MIC against E. coli BL21 ([9]; E. coli BL21, 5×10^5 CFU/mL, 10 h cultivation at 37° C.): 25 µg/mL
- MIC against M. catarrhalis ([10]; Moraxella catarrhalis, 5×10^5 CFU/mL, 10 h cultivation at 37° C.): 12.5 µg/mL
- MIC against E. cloacae ([11]; Enterobacter cloacae, 5×10^5 CFU/mL, 10 h cultivation at 37° C.): 12.5 µg/mL

Substance: PRT1272 (DVDECVEGTDNCHIDAICQNTPRSYKCICKSGYTGDGKHCK; listed as Homo sapiens)
- MIC against P. mirabilis [1, 12]: 50 µg/mL
- MIC against C. diversus [2, 13]: 50 µg/mL
- MIC against P. aeruginosa [3, 14]: 100 µg/mL
- MIC against P. vulgaris [4, 15]: 12.5 µg/mL
- MIC [5]: 25 µg/mL
- MIC against A. hydrophila [6, 16]: 12.5 µg/mL
- MIC against S. marcescens [7, 17]: 50 µg/mL
- MIC against K. pneumonia [8, 18]: 50 µg/mL
- MIC against E. coli BL21 [9, 19]: 50 µg/mL
- MIC against M. catarrhalis [10, 20]: 12.5 µg/mL
- MIC against E. cloacae [11, 21]: 25 µg/mL

Substance: PRT818 (DCRSACNCTAGAACDAVNGSCLCPAGRRGPRCA; listed as Homo sapiens)
- MIC (μg/mL) P. mirabilis ([1]; P. mirabilis, 10 h cultivation at 37° C., 5×10^5 CFU/mL): 25 µg/mL
- MIC (μg/mL) C. diversus ([2]; C. diversus, 10 h cultivation at 37° C., 5×10^5 CFU/mL): 12.5 µg/mL
- MIC (μg/mL) P. aeruginosa ([3]; P. aeruginosa, 10 h cultivation at 37° C., 5×10^5 CFU/mL): 25 µg/mL
- MIC (μg/mL) P. vulgaris ([4]; P. vulgaris, 10 h cultivation at 37° C., 5×10^5 CFU/mL): 12.5 µg/mL
- MIC [5]: 25 µg/mL
- MIC (μg/mL) A. hydrophila ([6]; A. hydrophila, 10 h cultivation at 37° C., 5×10^5 CFU/mL): 25 µg/mL
- MIC (μg/mL) S. marcescens ([7]; S. marcescens, 10 h cultivation at 37° C., 5×10^5 CFU/mL): 12.5 µg/mL
- MIC (μg/mL) K. pneumonia ([8]; K. pneumonia, 10 h cultivation at 37° C., 5×10^5 CFU/mL): 12.5 µg/mL
- MIC (μg/mL) E. coli BL21 ([9]; E. coli BL21, 10 h cultivation at 37° C., 5×10^5 CFU/mL): 50 µg/mL
- MIC (μg/mL) M. catarrhalis ([10]; M. catarrhalis, 10 h cultivation at 37° C., 5×10^5 CFU/mL): 25 µg/mL
- MIC (μg/mL) E. cloacae ([11]; E. cloacae, 10 h cultivation at 37° C., 5×10^5 CFU/mL): 12.5 µg/mL

Substance: PRT129 (CSTYGHLCRNGGRCREKRRGVTCDCAFSAYDGPFC; listed as Homo sapiens)
- MIC (μg/mL) P. mirabilis [1, 12]: 25 µg/mL
- MIC (μg/mL) C. diversus [2, 13]: 12.5 µg/mL
- MIC (μg/mL) P. aeruginosa [3, 14]: 50 µg/mL
- MIC (μg/mL) P. vulgaris [4, 15]: 12.5 µg/mL
- MIC [5]: 50 µg/mL
- MIC (μg/mL) A. hydrophila [6, 16]: 25 µg/mL
- MIC (μg/mL) S. marcescens [7, 17]: 12.5 µg/mL
- MIC (μg/mL) K. pneumonia [8, 18]: 12.5 µg/mL
- MIC (μg/mL) E. coli BL21 [9, 19]: 12.5 µg/mL
- MIC (μg/mL) M. catarrhalis [10, 20]: 25 µg/mL
- MIC (μg/mL) E. cloacae [11, 21]: 50 µg/mL

Substance: PRT1048 (YGKRCVPCKCANHSFCHPSNGTCYCLAGWTGPDCS; listed as Homo sapiens)
- MIC P. mirabilis [1, 22]: 12.5 µg/mL
- MIC C. diversus [2, 22]: 50 µg/mL
- MIC P. aeruginosa [3, 22]: 50 µg/mL
- MIC P. vulgaris [4, 22]: 50 µg/mL
- MIC [5]: 12.5 µg/mL
- MIC A. hydrophila [6, 22]: 25 µg/mL
- MIC S. marcescens [7, 22]: 12.5 µg/mL
- MIC K. pneumonia [8, 22]: 25 µg/mL
- MIC E. coli BL21 [9, 22]: 25 µg/mL
- MIC M. catarrhalis [10, 22]: 25 µg/mL
- MIC E. cloacae [11, 22]: 12.5 µg/mL

Substance: PRT90 (CDCYPVGSTSRSCAPHSGQCPCRPGALGRQCNSCDSPFAEVTASGCRV; listed as Homo sapiens)
- MIC (μg/mL) P. mirabilis [1, 12]: 25 µg/mL
- MIC (μg/mL) C. diversus [2, 13]: 25 µg/mL
- MIC (μg/mL) P. aeruginosa [3, 14]: 12.5 µg/mL
- MIC (μg/mL) P. vulgaris [4, 15]: 12.5 µg/mL
- MIC [5]: 50 µg/mL
- MIC (μg/mL) A. hydrophila [6, 16]: 12.5 µg/mL
- MIC (μg/mL) S. marcescens [7, 17]: 12.5 µg/mL
- MIC (μg/mL) K. pneumonia [8, 18]: 12.5 µg/mL
- MIC (μg/mL) E. coli BL21 [9, 19]: 12.5 µg/mL
- MIC (μg/mL) M. catarrhalis [10, 20]: 12.5 µg/mL
- MIC (μg/mL) E. cloacae [11, 21]: 12.5 µg/mL

Substance: PRT942 (LVNLCSRSPCKNKGTCVQKKAESQCLCPSGWAGAYCD; listed as Homo sapiens)
- MIC ([1]; P. mirabilis, 10 h cultivation at 37° C.): 50 µg/mL
- MIC ([2]; C. diversus, 10 h cultivation at 37° C.): 50 µg/mL
- MIC ([3]; P. aeruginosa, 10 h cultivation at 37° C.): 12.5 µg/mL
- MIC ([4]; P. vulgaris, 10 h cultivation at 37° C.): 12.5 µg/mL
- MIC [5]: 25 µg/mL
- MIC ([6]; A. hydrophila, 10 h cultivation at 37° C.): 25 µg/mL
- MIC ([7]; S. marcescens, 10 h cultivation at 37° C.): 50 µg/mL
- MIC ([8]; K. pneumonia, 10 h cultivation at 37° C.): 50 µg/mL
- MIC ([9]; E. coli BL21, 10 h cultivation at 37° C.): 50 µg/mL
- MIC ([10]; M. catarrhalis, 10 h cultivation at 37° C.): 12.5 µg/mL
- MIC ([11]; E. cloacae, 10 h cultivation at 37° C.): 12.5 µg/mL
